Measured values published in patent publication US20040054182A1, “1h-imidazopyridine derivatives” (priority 2000, published 2004).
Counter-ions that a name gives are not always drawn.

Columns and labels:
human IL-1 beta = experiment: Inhibitory action against IL-1 beta production in LPS-stimulated human PBMCs (sandwich ELISA of culture supernatant); type: cell-based; conditions: 16 hours
Experimental: (§1) As an example of the excellent effects of the compounds of the present invention, experimental results of inhibitory actions against production of TNF-alpha and IL-1 beta in human cells will be shown below.
(§2) About 50 mL of whole blood was collected from each adult healthy volunteer by venepuncture, and poured into plastic tubes which containing 170 micro L of Novo-heparin 1000 (produced by Novo-Nordisk). Then, PBMCs (Peripheral Blood Mononuclear Cells) were separated using LeucoPREP™ (produced by Becton Dickinson) lymphocyte separation tube, and cultured with RPMI-1640 medium (produced by Nissui Pharmaceutical Co.) containing 2 mM L-glutamine (produced by Life Technologies), 2.5 U/mL penicillin-2.5 micro g/mL streptomycin solution (produced by Life Technologies) supplemented with 10% fetal calf serum (produced by Intergen Company) at 1×10^6 cells/mL.
(§3) Test compounds were dissolved in distilled ultra-pure water, dimethyl sulfoxide or 0.1 M hydrochloric acid at 20 micro M as far as possible, and then sequentially diluted with saline and used.
(§4) A hundred and eighty micro L of prepared human PBMCs were added to each well of 96-well plate (MicroTest III™ tissue culture plate; produced by Becton Dickinson) containing 10 micro L of adequate concentrations solution of test compounds. Then 30 minutes after, 10 micro L of 20 micro g/mL lipopolysaccharide (LPS) was added to each well, and cells in the well plate were covered with plastic lid and incubated for 16 hours at 37° C. in an atmosphere of 5% CO2.
(§5) The levels of human TNF-alpha and human IL-1 beta in culture supernatant were measured by constructed sandwich enzyme-linked immunosorbent assay method. Ninety-six-well microtiter plates were coated with diluted anti-cytokine antibody (capture/first-antibody). After washing the wells, the culture supernatant was diluted appropriately, added to each well and incubated. Then detection/second-antibody against cytokine and HRP (horseradish peroxidase)-conjugated/third-antibody against detection-antibody were added to wells sequentially, with interposed washing processes. After the final washing process, reaction of calorimetric quantification was started by addition of tetramethylbenzidine solution (produced by DAKO) to each well. After quenching the reaction by addition of 0.5 M sulfuric acid, optical absorbance of each well at 450 nm was measured by M-VmaxTM kinetic microplate reader (produced by Molecular Devices). Concentrations of cytokines were determined by Softmax™ (produced by Molecular Devices) quantification software in comparison with calibration curve derived from corresponding recombinant cytokines as standard. For measurement of human TNF-alpha, monoclonal mouse anti-human TNF-alpha (produced by ENDOGEN), polyclonal rabbit anti-human TNF-alpha (produced by Pharma Biotechnologie Hannover), peroxidase-conjugated donkey anti-rabbit IgG antibodies (produced by Jackson ImmunoRes. Labs.), and recombinant human TNF-alpha (produced by INTERGEN Company) were used for the capture-, detection-, HRP-conjugated-antibodies and the standard for calibration curve, respectively. […]

human TNF-alpha = experiment: Inhibitory action against TNF-alpha production in LPS-stimulated human PBMCs (sandwich ELISA of culture supernatant); type: cell-based; conditions: 16 hours
Experimental: as §1, §2, §3, §4, §5

[1] = administered concentration 0.01 micro mol/L
[2] = administered concentration 0.03 micro mol/L
[3] = administered concentration 0.10 micro mol/L
[4] = administered concentration 0.3 micro mol/L
[5] = administered concentration 1.0 micro mol/L

FC(F)(F)c1nc2ccccc2c2c1nc(-c1cccs1)n2CCC1CCNCC1 (as salt: trifluoroacetate) (hydrate or solvate) [Example 66, 1-[2-(4-Piperidyl)ethyl]-2-(2-thienyl)-4-trifluoromethyl-1H-imidazo[4,5-c]-quinoline] showed a melting point of 237 to 239 °C.
For c1ccc(-c2nc3c(C4CC4)nc4ccccc4c3n2CCC2CCNCC2)cc1 (as salt: fumarate) (hydrate or solvate) [Example 110, 4-Cyclopropyl-2-phenyl-1-[2-(4-piperidyl)ethyl]-1H-imidazo[4,5-c]quinoline], the melting point was 142.5 to 147 °C (dec.).
With N#Cc1nc2ccccc2c2c1nc(-c1ccccc1)n2CCC1CCNCC1 (as salt: trifluoroacetate) (hydrate or solvate) [Example 117, 4-Cyano-2-phenyl-1-[2-(4-piperidyl)ethyl]-1H-imidazo[4,5-c]quinoline] the melting point was 245 to 251 °C (dec.).
With Fc1ccc2c(c1)nc(C(F)(F)F)c1nc(-c3ccco3)n(CCC3CCNCC3)c12 (as salt: trifluoroacetate) (hydrate or solvate) the melting point was 239 to 241 °C (dec.).
In the case of Fc1ccc2c(c1)nc(C(F)(F)F)c1nc(-c3nccs3)n(CCC3CCNCC3)c12 (as salt: trifluoroacetate) [Example 82, 7-Fluoro-1-[2-(4-piperidyl)ethyl]-2-(2-thiazolyl)-4-trifluoromethyl-1H-imidazo-[4,5-c]quinoline], the melting point is reported as 236 to 237 °C (dec.).
With NCC(=O)NCCn1c(-c2ccc[nH]2)nc2c(C(F)(F)F)nc3ccccc3c21.O=C(O)/C=C/C(=O)O [Example 131, 2-Amino-N-[2-[2-(2-pyrrolyl)-4-trifluoromethyl-1H-imidazo[4,5-c]quinolin-1-yl]ethyl]-acetamide fumarate] the melting point was 176 to 177 °C (dec.).
With FC(F)(F)c1nc2ccccc2c2c1nc(C1CCCCC1)n2CCC1CCNCC1 (as salt: trifluoroacetate) [Example 71, 2-Cyclohexyl-1-[2-(4-piperidyl)ethyl]-4-trifluoromethyl-1H-imidazo[4,5-c]quinoline] the melting point was 182.5 to 184 °C.
With Fc1ccc2c(c1)nc(C(F)(F)F)c1nc(-c3ccccc3)n(CCC3CCNCC3)c12 (as salt: trifluoroacetate) [Example 80, 7-Fluoro-2-phenyl-1-[2-(4-piperidyl)ethyl]-4-trifluoromethyl-1H-imidazo[4,5-c]-quinoline] the melting point was 240 to 242 °C (dec.).
Work on FC(F)(F)c1nc2ccccc2c2c1nc(-c1nccs1)n2CCC1CCNCC1 [Example 70, 1-[2-(4-Piperidyl)ethyl]-2-(2-thiazolyl)-4-trifluoromethyl-1H-imidazo[4,5-c]-quinoline] yielded a melting point of 199 to 200 °C.
For O=C(O)c1nc2ccccc2c2c1nc(-c1ccccc1)n2CCC1CCNCC1 (as salt: trifluoroacetate) (hydrate or solvate) [Example 118, 2-Phenyl-1-[2-(4-piperidyl)ethyl]-1H-imidazo[4,5-c]quinoline-4-carboxylic acid], the melting point was 212 to 215 °C.
In the case of FC(F)(F)c1nc2cc(Cl)ccc2c2c1nc(-c1cccs1)n2CCC1CCNCC1 (as salt: trifluoroacetate) (hydrate or solvate) [Example 77, 7-Chloro-1-[2-(4-piperidyl)ethyl]-2-(2-thienyl)-4-trifluoromethyl-1H-imidazo-[4,5-c]quinoline], the melting point is reported as 217 to 219 °C (dec.).
With FC(F)(F)c1nc2ccccc2c2c1nc(-c1ccc[nH]1)n2CCC1CCNCC1 [Example 64, 1-[2-(4-Piperidyl)ethyl]-2-(2-pyrrolyl)-4-trifluoromethyl-1H-imidazo[4,5-c]-quinoline] the melting point was 280 to 282.5 °C (dec.).
In the case of FC(F)(F)c1nc2ccccc2c2c1nc(-c1ccc[nH]1)n2CCC1CNCCO1 (stereo not shown) (as salt: trifluoroacetate) [Example 102, 1-[2-(2-Morpholinyl)ethyl]-2-(2-pyrrolyl)-4-trifluoromethyl-1H-imidazo[4,5-c]-quinoline], the melting point is reported as 254 to 258 °C (dec.).
Compound c1ccc(-c2nc3c(-c4cccs4)nc4ccccc4c3n2CCC2CCNCC2)cc1 (as salt: salt) [Example 115, 2-Phenyl-1-[2-(4-piperidyl)ethyl]-4-(2-thienyl)-1H-imidazo[4,5-c]quinoline] has a melting point of 210 to 212 °C.
In the case of CN(C)CCn1c(-c2ccc[nH]2)nc2c(C(F)(F)F)nc3ccccc3c21 (as salt: fumarate) [Example 51, 1-(2-Dimethylaminoethyl)-2-(2-pyrrolyl)-4-trifluoromethyl-1H-imidazo[4,5-c]-quinoline], the melting point is reported as 228 to 230 °C (dec.).
With FC(F)(F)c1nc2ccccc2c2c1nc(-c1ccc[nH]1)n2CCC1CNCCO1 (stereo not shown) [Example 102, 1-[2-(2-Morpholinyl)ethyl]-2-(2-pyrrolyl)-4-trifluoromethyl-1H-imidazo[4,5-c]-quinoline] the “Inhibitory action against IL-1 beta production in human cells (inhibitory percentages of cytokine production)” value (human IL-1 beta; [1]) was 81%, the “Inhibitory action against IL-1 beta production in human cells (inhibitory percentages of cytokine production)” value (human IL-1 beta; [2]) was 67% and the “Inhibitory action against IL-1 beta production in human cells (inhibitory percentages of cytokine production)” value (human IL-1 beta; [3]) was 48%. The “Inhibitory action against IL-1 beta production in human cells (inhibitory percentages of cytokine production)” value (human IL-1 beta; [4]) was 0%, the “Inhibitory action against IL-1 beta production in human cells (inhibitory percentages of cytokine production)” value (human IL-1 beta; [5]) was 0% and the “Inhibitory action against TNF-alpha production in human cells (inhibitory percentages of cytokine production)” value (human TNF-alpha; [1]) was 96%. The “Inhibitory action against TNF-alpha production in human cells (inhibitory percentages of cytokine production)” value (human TNF-alpha; [2]) was 84%, the “Inhibitory action against TNF-alpha production in human cells (inhibitory percentages of cytokine production)” value (human TNF-alpha; [3]) was 25% and the “Inhibitory action against TNF-alpha production in human cells (inhibitory percentages of cytokine production)” value (human TNF-alpha; [4]) was 23%. The “Inhibitory action against TNF-alpha production in human cells (inhibitory percentages of cytokine production)” value (human TNF-alpha; [5]) was 27%.
For FC(F)(F)c1nc2ccccc2c2c1nc(-c1ccccc1)n2CCC1CNCCO1 (stereo not shown) (as salt: trifluoroacetate) (hydrate or solvate) [Example 101, 1-[2-(2-Morpholinyl)ethyl]-2-phenyl-4-trifluoromethyl-1H-imidazo[4,5-c]-quinoline], the melting point was 224 to 228 °C (dec.).
With FC(F)(F)c1nc2cc(Cl)ccc2c2c1nc(C1CCCC1)n2CCC1CCNCC1 (as salt: trifluoroacetate) the melting point was 246 to 248 °C (dec.).
For Fc1ccc2c(c1)nc(C(F)(F)F)c1nc(-c3ncc[nH]3)n(CCC3CCNCC3)c12 (as salt: trifluoroacetate) (hydrate or solvate) [Example 83, 7-Fluoro-2-(2-1H-imidazolyl)-1-[2-(4-piperidyl)ethyl]-4-trifluoromethyl-1H-imidazo[4,5-c]quinoline], the melting point was 249 to 250 °C (dec.).
In the case of Cc1ccc2c(c1)nc(C(F)(F)F)c1nc(-c3nccs3)n(CCC3CCNCC3)c12 (as salt: trifluoroacetate) (hydrate or solvate) [Example 88, 7-Methyl-1-[2-(4-piperidyl)ethyl]-2-(2-thiazolyl)-4-trifluoromethyl-1H-imidazo-[4,5-c]quinoline], the melting point is reported as 239 to 241 °C (dec.).
For Cc1cccc2c1nc(C(F)(F)F)c1nc(-c3ccco3)n(CCC3CCNCC3)c12 (as salt: trifluoroacetate) (hydrate or solvate), the melting point was 232 to 234 °C (dec.).
In the case of FC(F)(F)c1nc2ccccc2c2c1nc(-c1ccccc1)n2CCC1CCCNC1 (stereo not shown) (as salt: trifluoroacetate), the melting point is reported as 229.5 to 231.5 °C (dec.).
For FC(F)(F)c1nc2cc(Cl)ccc2c2c1nc(-c1ccco1)n2CCC1CCNCC1 (as salt: trifluoroacetate), the melting point was 219 to 221 °C (dec.).
In the case of FC(F)(F)c1nc2cc(Cl)ccc2c2c1nc(-c1ncc[nH]1)n2CCC1CCNCC1 (as salt: trifluoroacetate) [Example 75, 7-Chloro-2-(2-1H-imidazolyl)-1-[2-(4-piperidyl)ethyl]-4-trifluoromethyl-1H-imidazo[4,5-c]quinoline], the melting point is reported as 290 to 295 °C (dec.).
In the case of FC(F)(F)c1nc2cc(Cl)ccc2c2c1nc(-c1nccs1)n2CCC1CCNCC1 [Example 74, 7-Chloro-1-[2-(4-piperidyl)ethyl]-2-(2-thiazolyl)-4-trifluoromethyl-1H-imidazo-[4,5-c]quinoline], the melting point is reported as 232.5 to 234 °C (dec.).
